ChEMBL document CHEMBL2074155, “Transport of antimony salts by Arabidopsis thaliana protoplasts over-expressing the human multidrug resistance-associated protein 1 (MRP1/ABCC1)” (FEBS Lett, 2006)

Legend:
[1] = molecular target: T1, Multidrug resistance-associated protein 1 (Homo sapiens, UniProt P33527); assay: TP_TRANSPORTER: inhibition of Sb(III) accumulation in the presence of glibenclamid at a concentration of 10uM in MRP1-expressing MCP cells; type: functional, subcellular, Protoplasts; settings: arabidopsis thaliana
T1 sequence (P33527 whole entry): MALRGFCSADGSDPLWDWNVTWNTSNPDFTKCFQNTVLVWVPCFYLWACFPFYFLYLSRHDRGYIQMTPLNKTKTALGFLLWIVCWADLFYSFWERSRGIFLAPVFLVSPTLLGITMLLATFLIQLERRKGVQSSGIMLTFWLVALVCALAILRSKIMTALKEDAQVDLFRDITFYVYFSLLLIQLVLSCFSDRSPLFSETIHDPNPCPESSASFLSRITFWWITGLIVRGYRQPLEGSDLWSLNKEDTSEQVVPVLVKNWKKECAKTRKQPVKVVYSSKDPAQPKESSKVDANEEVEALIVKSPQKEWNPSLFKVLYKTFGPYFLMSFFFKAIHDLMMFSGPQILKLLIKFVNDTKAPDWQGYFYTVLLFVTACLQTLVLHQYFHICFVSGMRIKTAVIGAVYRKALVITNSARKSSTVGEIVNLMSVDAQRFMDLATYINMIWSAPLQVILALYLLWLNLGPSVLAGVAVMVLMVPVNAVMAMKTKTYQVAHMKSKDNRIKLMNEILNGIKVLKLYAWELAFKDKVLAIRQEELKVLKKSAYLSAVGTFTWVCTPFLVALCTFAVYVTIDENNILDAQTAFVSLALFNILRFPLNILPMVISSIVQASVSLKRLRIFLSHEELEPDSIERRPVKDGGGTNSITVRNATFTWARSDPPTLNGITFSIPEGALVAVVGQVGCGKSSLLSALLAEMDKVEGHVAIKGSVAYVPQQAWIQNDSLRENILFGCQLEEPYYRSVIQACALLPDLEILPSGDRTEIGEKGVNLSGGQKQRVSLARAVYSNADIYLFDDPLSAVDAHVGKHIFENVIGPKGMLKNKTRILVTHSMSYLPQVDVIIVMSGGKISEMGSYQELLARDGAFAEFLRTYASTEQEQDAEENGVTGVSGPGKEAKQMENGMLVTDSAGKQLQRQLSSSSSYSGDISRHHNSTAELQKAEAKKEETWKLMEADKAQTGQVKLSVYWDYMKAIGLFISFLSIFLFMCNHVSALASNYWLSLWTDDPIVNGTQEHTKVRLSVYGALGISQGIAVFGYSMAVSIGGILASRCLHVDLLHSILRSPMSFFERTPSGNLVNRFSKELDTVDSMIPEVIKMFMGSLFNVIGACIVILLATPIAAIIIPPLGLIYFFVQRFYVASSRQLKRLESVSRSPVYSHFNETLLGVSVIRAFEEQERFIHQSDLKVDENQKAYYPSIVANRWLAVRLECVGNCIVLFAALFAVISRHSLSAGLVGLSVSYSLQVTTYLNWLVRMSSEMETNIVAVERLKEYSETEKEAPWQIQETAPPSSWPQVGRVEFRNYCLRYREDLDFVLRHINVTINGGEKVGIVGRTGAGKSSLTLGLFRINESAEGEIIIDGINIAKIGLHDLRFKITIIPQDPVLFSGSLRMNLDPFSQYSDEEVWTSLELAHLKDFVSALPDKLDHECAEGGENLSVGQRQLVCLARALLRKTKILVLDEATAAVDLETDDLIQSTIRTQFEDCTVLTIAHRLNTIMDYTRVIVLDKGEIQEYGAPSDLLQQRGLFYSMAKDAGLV

[2] = molecular target: T1, Multidrug resistance-associated protein 1; assay: TP_TRANSPORTER: cell accumulation in MRP1-expressing MCP cells; type: functional, Mesophyll cell protoplasts; settings: arabidopsis thaliana

Activity [1]	Activity [2]	Compound
inhibitor [+]		COc1ccc(Cl)cc1C(=O)NCCc1ccc(S(=O)(=O)NC(=O)NC2CCCCC2)cc1 [GLYBURIDE]
	substrate [+]	ANTIMONY (III) ION
